This is an account of results in US20090069623A1, “METHODS AND COMPOSITIONS FOR TREATMENT OR PREVENTION OF RADIATION-INDUCED FIBROSIS” (Virginia Commonwealth University Intellectual Property …, priority 2007, published 2009).

Holding throughout (assay type): cell-based, human
Test [1] has as its system CTGF, fibronectin (FN), collagen type IV (Col IV) mRNA. Put plainly: RT-PCR of mRNA expression in irradiated HFL-1 cells treated with simvastatin. The settings on record: simvastatin pretreatment 6 hours, 10 Gy, 20 hours, FIG. 8A. On the procedure:
For statin treatment experiments, cells were grown overnight in 35 mm plates (6-well plates were also used in some studies) to form a 75-80% confluent monolayer. The cells were then washed with PBS, and the media was changed to SFM (800 μL).
RT-PCR analysis of CTGF, COL-IV, FN and hβ2M. […] One microgram of purified total RNA was used for RT-PCR analysis using the ThermoScript RT-PCR System (Invitrogen, Inc.) according to the protocol of the manufacturer. The sequences of the forward and reverse primers are as follows: CTGF forward primer (SEQ ID NO 1) 5′-[…]-3′, CTGF reverse primer (SEQ ID NO 2) 5′-[…]-3′; COL-IV forward primer (SEQ ID NO 3) 5′-[…]-3′, COL-IV reverse primer (SEQ ID NO 4) 5′-[…]-3′; FN forward primer (SEQ ID NO 5) 5′-[…]-3′, FN reverse primer (SEQ ID NO 6) 5′-[…]-3′; hβ2M forward primer (SEQ ID NO 7) 5′-[…]-3′; hβ2M reverse primer (SEQ ID NO 8) 5′-[…]-3′. The CTGF PCR product is 242 bp in length, the COL-IV PCR product is 138 bp, the FN PCR product is 203 bp, and hβ2M PCR product is 278 bp. For PCR amplification, 25 cycles were performed for the amplification of CTGF, COL-IV, FN and hβ2M (denaturation: 94° C., 45 sec; annealing: 55° C., 45 sec; polymerization: 72° C., 1 min). Amplified products were separated by electrophoresis on a 1.0% agarose gel, and DNA was visualized by ethidium bromide staining.

The next test concerns CTGF, fibronectin. Briefly: Western blot of HFL-1 cells treated with TGF-β1 and simvastatin. The settings on record: TGF-β1 plus simvastatin, three days, FIG. 7B. On the procedure: Cell Culture and Treatment. Normal human fetal lung fibroblasts (HFL-1) were purchased from the American Type Culture Collection (ATCC Number: CCL-153) and cultured in Ham's F12K medium (American Type Culture Collection) supplemented with 2 mM L-glutamine adjusted to contain 1.5 g/L sodium bicarbonate and 10% fetal bovine serum. Cells were maintained in humidified 5% CO2 at 37° C. Human dermal fibroblasts (HDF), derived from the dermis of normal human adult skin, were purchased from Invitrogen, Inc. and cultured in Medium-106 (Invitrogen, Inc., Catalogue No. M-106-500) containing LSGS Kit (Invitrogen, Inc., Catalogue No. S-003-K) prior to use. […]
Harvesting Culture Media and Cell Lystates. For analysis of extracellular CTGF, fibronectin, and α-tubulin, cell culture media was collected, centrifuged to remove cellular debris, aliquoted, and frozen at −70° C. until ready for use. […]
Western blot analysis of HFL-1 whole cell proteins. […] After washing the blot, the antibodies were detected by the enhanced chemiluminescence method (PerkinElmer Life Sciences Inc.).
The separated proteins were then transferred to nitrocellulose, and Western immunoblotting was performed with antibodies specific for CTGF, fibronectin, and α-tubulin. […] As a control for protein loading, α-tubulin expression in HFL-1 cells was also determined.
On the technique in general: Immunoblotting shows a protein as a band on a membrane.

Test [2] deals with CTGF, fibronectin (FN), collagen type IV (Col IV) mRNA. Put plainly: RT-PCR of TGF-β1-induced mRNA expression in HDF cells treated with simvastatin. The settings on record: 10 ng/ml TGF-β1 for 20 hours, FIG. 10A. On the procedure:
Cell Culture and Treatment. Normal human fetal lung fibroblasts (HFL-1) were purchased from the American Type Culture Collection (ATCC Number: CCL-153) and cultured in Ham's F12K medium (American Type Culture Collection) supplemented with 2 mM L-glutamine adjusted to contain 1.5 g/L sodium bicarbonate and 10% fetal bovine serum. Cells were maintained in humidified 5% CO2 at 37° C. Human dermal fibroblasts (HDF), derived from the dermis of normal human adult skin, were purchased from Invitrogen, Inc. and cultured in Medium-106 (Invitrogen, Inc., Catalogue No. M-106-500) containing LSGS Kit (Invitrogen, Inc., Catalogue No. S-003-K) prior to use. After reaching 75-80% confluence, the medium was changed to serum free medium (SFM) for irradiation with different dose 1Gy, 2.5Gy, 5Gy, 7.5Gy and 10 Gy by using ^137Se. Alternatively, cells were treated with 5 ng/ml TGF-β1 (Sigma-Aldrich, Inc., Catalogue No. T7039) to stimulate CTGF production. The cells were then kept for 3 days in humidified 5% CO2 at 37° C. and subjected to Western immunoblot.^1 ^1What are the culture conditions (e.g., media) for M12 cells used in FIG. 3?
RT-PCR analysis of CTGF, COL-IV, FN and hβ2M. […]
The ability of statins to inhibit TGF-β1-mediated induction of CTGF, fibronectin, and collagen type IV was assessed in HDF cells. […]

In the case of `CCC(C)(C)C(=O)O[C@H]1C[C@@H](C)C=C2C=C[C@H](C)[C@H](CC[C@@H]3C[C@@H](O)CC(=O)O3)[C@H]21` [simvastatin, 2,2-dimethyl-butanoic acid(1S,3R,7S,8S,8aR)-1,2,3,7,8,8a-hexahydro-3,7-dimethyl-8-[2-[(2R,4R)-tetrahydro-4-hydroxy-6-oxo-2H-pyran-2-yl]ethyl]-1-naphthalenylester], in test [1], the “expression of CTGF, FN, and Col-IV mRNA” value was “decrease in the expression of CTGF, FN, and Col-IV mRNA”. Besides, the fibronectin protein expression result with CTGF, fibronectin was “decrease in protein expression or fibronectin”. Also, the “CTGF, FN, and Col IV mRNA expression” value in test [2] (0.1 μM simvastatin) was “reduction in CTGF, FN, and Col IV mRNA expression”; in test [2] (increasing concentration of simvastatin) it was “reduction in CTGF, FN, and Col IV mRNA expression became more pronounced”.
